What was measured:
Format in all cases: cell-based
P. aeruginosa PAO1 [1] = assay: Antibacterial activity in combination with minocycline (growth inhibition); conditions: Pseudomonas aeruginosa, PAO1, compound at 50 μM; minocycline 8 μg/mL; OD625 23 h minus 1 h; read-out: residual growth of P. aeruginosa PAO1 (% of uninhibited control) with minocycline
Procedure, shortened: (§1)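 Test compound combined with fixed subinhibitory partner antibiotic: linezolid 128 μg/mL for either strain, minocycline 0.25 μg/mL (E. coli) or 8 μg/mL (P. aeruginosa), in caMHB shaken at 37 °C. Residual growth as % of inhibitor-free control, from OD625 at 23 h minus 1 h.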

E. coli ATCC25922 [2] = assay: Antibacterial activity in combination with linezolid (growth inhibition); conditions: Escherichia coli, ATCC25922, compound at 50 μM; linezolid 128 μg/mL; OD625 23 h minus 1 h; read-out: residual growth of E. coli ATCC25922 (% of uninhibited control) with linezolid
Protocol: (§2) Antibacterial activity in combination with minocycline or with linezolid
(§3) Inhibition of growth was measured with E. coli ATCC25922 and P. aeruginosa PAO1 in a 96-well plate format. Cation-adjusted Müller-Hinton broth (caMHB) was inoculated with an overnight culture and incubated at 37° C. on a shaker until OD625 reached 0.6 to 0.7. Density was adjusted to OD600=0.5 by addition of caMHB. 35 μL of the suspension were diluted to 35 mL with caMHB and supplemented with minocycline at the subinhibitory doses of 0.25 μg/mL for E. coli and 8 μg/mL for P. aeruginosa or with linezolid at the subinhibitory dose of 128 μg/mL for E. coli and P. aeruginosa. Each well contained 1 μL of test compound in 100 μL caMHB with minocycline or with linezolid.
(§4) Plates were incubated at 37° C. on a plate shaker. OD625 was measured at 1 h, 6 h, and at 23 h.
(§5) The difference between OD at 23 h and at 1 h was taken as measure for cell density and compared to controls without inhibitor (i.e. uninhibited control). Results were expressed as residual growth (% of uninhibited control). Enhancement of minocycline or linezolid activity caused reduced residual growth.

E. coli ATCC25922 [3] = assay: Antibacterial activity in combination with minocycline (growth inhibition); conditions: Escherichia coli, minocycline 0.25 μg/mL, OD625 23 h minus 1 h, read-out: residual growth of E. coli ATCC25922 (% of uninhibited control) with minocycline; for activity at 25 µM: ATCC25922, compound at 25 μM
Procedure, shortened: as §1

P. aeruginosa PAO1 [4] = assay: Antibacterial activity in combination with linezolid (growth inhibition); conditions: Pseudomonas aeruginosa, PAO1, compound at 50 μM; linezolid 128 μg/mL; OD625 23 h minus 1 h; read-out: residual growth of P. aeruginosa PAO1 (% of uninhibited control) with linezolid
Protocol: as §2, §3, §4, §5

| Compound | activity at 50 µM (E. coli ATCC25922 [2]) [%] | activity at 25 µM (E. coli ATCC25922 [3]) [%] | activity at 50 µM (P. aeruginosa PAO1 [4]) [%] | other results |
| --- | --- | --- | --- | --- |
| Clc1ccccc1COc1ccc(CNCC2CCNCC2)cc1 [Example 1] | ≤ 50 |  |  | activity at 50 µM (P. aeruginosa PAO1 [1]): ≤ 50% |
| Clc1ccc(COc2ccc(CNCC3CNC3)cc2)c(Br)c1 [Example 36] |  | ≤ 10 | ≤ 50 |  |
| Brc1ncccc1COc1cccc(CNCC2CNC2)c1 [Example 48] | ≤ 50 |  |  |  |
| Clc1ccc(COc2ccc(CNCC3CCNC3)cc2)c(Br)c1 (stereo not shown) [Example 63] |  | ≤ 10 | ≤ 50 |  |
| N#Cc1ccc(COc2ccc(CNCC3CNC3)cc2)cc1 [Example 76] | ≤ 50 |  |  |  |
| CS(=O)(=O)c1ccc(COc2ccc(CNCC3CNC3)cc2)c(Cl)c1 [Example 78] | ≤ 50 |  |  |  |
| Clc1ccc(COc2ccc(CCNCC3CNC3)cc2)c(Br)c1 [Example 100] | ≤ 50 | ≤ 10 |  |  |
| O=C(O)c1cc(CNCC2CNC2)cc(OCc2ccc(Cl)cc2Br)c1 [Example 110] | ≤ 50 |  |  |  |
| O=C(CNCC1CCNC1)c1cccc(OCc2ccc(Cl)cc2Br)c1 (stereo not shown) [Example 143] | ≤ 50 |  |  |  |
| O=C(Nc1ccc(CNCC2CCNC2)cc1Cl)c1ccc(C(F)(F)F)cc1C(F)(F)F (stereo not shown) [Example 160] | ≤ 50 |  |  |  |
| O=C(Nc1ccc(CNCC2CNC2)cc1Cl)c1ccc(Cl)cc1C(F)(F)F [Example 161] | ≤ 50 |  |  |  |
| Clc1ccc(COc2cc(CNCC3CNC3)cc(OCC3CC3)c2)c(Cl)c1 [Example 166] |  | ≤ 10 | ≤ 50 |  |
| CC(C)Oc1cc(C[N+](C)(C)CC2CCNC2)cc(OCc2ccc(Cl)cc2Br)c1 (stereo not shown) [Example 167] |  | ≤ 10 | ≤ 50 |  |
| NCC1CCC(CNCc2cccc(OCc3ccc(Cl)cc3Br)c2)N1 (stereo not shown) [Example 192] |  | ≤ 10 | ≤ 50 | activity at 50 µM (P. aeruginosa PAO1 [1]): ≤ 50% |
| C[N+](C)(CC(=O)O)Cc1cc(CNCC2CNC2)cc(OCc2ccc(Cl)cc2Br)c1 [Example 232] | ≤ 50 |  |  |  |
| CN(CC(=O)O)Cc1cc(CNCC2CNC2)cc(OCc2ccc(Cl)cc2Br)c1 [Example 244] | ≤ 50 |  |  |  |
| Clc1ccc(COc2cc(CNCC3CCNC3)cc(OCCc3c[nH]cn3)c2)c(Br)c1 (stereo not shown) [Example 251] |  | ≤ 10 | ≤ 50 |  |
| CC(C)(C)c1ccc(COc2cc(CNCC3CNC3)cc(C(F)(F)F)c2)cc1 [Example 273] |  | ≤ 10 | ≤ 50 |  |
| C=CCOc1cc(/C=C/c2cccc(C#N)c2)cc(CNCC2CCNC2)c1 (stereo not shown) [Example 305] |  | ≤ 10 | ≤ 50 |  |
| C=CCOc1cc(/C=C/c2ccsc2)cc(CNCC2CCNC2)c1 (stereo not shown) [Example 320] |  | ≤ 10 |  | activity at 50 µM (P. aeruginosa PAO1 [1]): ≤ 50% |
| C=CCOc1cc(/C=C/c2ccc(OC)cc2OC)cc(CNCC2CNC2)c1 [Example 323] |  | ≤ 10 |  | activity at 50 µM (P. aeruginosa PAO1 [1]): ≤ 50% |
| CC(C)COc1cc(/C=C/c2cccc(C(N)=O)c2)cc(CNCC2CCNC2)c1 (stereo not shown) [Example 331] |  | ≤ 10 |  | activity at 50 µM (P. aeruginosa PAO1 [1]): ≤ 50% |
| CC(C)COc1cc(/C=C/c2cccnc2)cc(CNCC2CCNC2)c1 (stereo not shown) [Example 332] |  | ≤ 10 | ≤ 50 | activity at 50 µM (P. aeruginosa PAO1 [1]): ≤ 50% |

| Compound | activity at 50 µM (E. coli ATCC25922 [2]) [%] | activity at 25 µM (E. coli ATCC25922 [3]) [%] | activity at 50 µM (P. aeruginosa PAO1 [4]) [%] | other results |
| --- | --- | --- | --- | --- |
| CC(C)COc1cc(/C=C/c2ccc(C(N)=O)cc2)cc(CNCC2CCNC2)c1 (stereo not shown) [Example 337] |  | ≤ 10 | ≤ 50 |  |
| C=CCOc1cc(/C=C/c2nc(C(C)C)cs2)cc(CNCC2CCNC2)c1 (stereo not shown) [Example 353] |  | ≤ 10 |  | activity at 50 µM (P. aeruginosa PAO1 [1]): ≤ 50% |
| C=CCOc1cc(/C=C/c2ccc(Cl)cc2Br)cc(CNC(=O)[C@H]2CCNC2)c1 [Example 366] |  | ≤ 10 |  | activity at 50 µM (P. aeruginosa PAO1 [1]): ≤ 50% |
| C[N+](C)(Cc1cc(OCCc2c[nH]cn2)cc(OCc2ccc(Cl)cc2Br)c1)CC1CNC1 [Example 389] |  | ≤ 10 | ≤ 50 |  |
| C[N+](C)(Cc1cc(OCCc2c[nH]cn2)cc(OCc2ccc(Cl)cc2Br)c1)CC1CCNC1 (stereo not shown) [Example 404] |  | ≤ 10 | ≤ 50 |  |
| c1cncc(COc2cc(CNCC3CCNC3)cc(OCCc3ccncc3)c2)c1 (stereo not shown) [Example 427] | ≤ 50 |  |  |  |
| c1cncc(COc2cc(CNCC3CNC3)cc(OCCN3CCOCC3)c2)c1 [Example 428] | ≤ 50 |  |  |  |
| CC(C)COc1ccc(/C=C/c2ccc(Cl)cc2Br)cc1CNCC1CNC1 [Example 432] |  | ≤ 10 | ≤ 50 |  |
| C(=C\c1cc(CNCC2CNC2)cc(OCCN2CCOCC2)c1)/c1cccnc1 [Example 442] | ≤ 50 |  |  |  |
| C=CCOc1cc(/C=C/c2ccc(Cl)cc2Br)cc(C(=O)NCC(=O)NCC2CNC2)c1 [Example 445] |  | ≤ 10 |  | activity at 50 µM (P. aeruginosa PAO1 [1]): ≤ 50% |
| C=CCOc1cc(/C=C/c2ccc(Cl)cc2Br)cc(C(=O)NCCN(CC2CNC2)CC2CNC2)c1 [Example 447] | ≤ 50 | ≤ 10 |  |  |
| C=CCOc1cc(/C=C/c2cncc(C(=O)O)c2)cc(CNCC2CCNC2)c1 (stereo not shown) [Example 449] | ≤ 50 |  |  |  |
| C=CCOc1cc(/C=C/c2ccc(Cl)cc2Br)cc(C(=O)NCCNC(=O)C2CNC2)c1 [Example 454] |  | ≤ 10 | ≤ 50 |  |
| C=CCOc1cc(/C=C/c2cncc(C(=O)N(C)C)c2)cc(CNCC2CCNC2)c1 (stereo not shown) [Example 467] |  |  | ≤ 50 | activity at 50 µM (P. aeruginosa PAO1 [1]): ≤ 50% |
| C=CCOc1cc(/C=C/c2ccc(N)cc2)nc(CNCC2CCNC2)c1 (stereo not shown) [Example 475] |  |  |  | activity at 50 µM (E. coli ATCC25922 [3]; ATCC25922, compound at 50 μM): ≤ 50%; activity at 50 µM (P. aeruginosa PAO1 [1]): ≤ 50% |
| N#Cc1cncc(/C=C/c2cc(OCc3ccccn3)cc(CNCC3CCNC3)n2)c1 (stereo not shown) [Example 482] | ≤ 50 |  |  |  |
| N#Cc1cncc(/C=C/c2cc(CNCC3CCNC3)cc(OCCN3CCOCC3)c2)c1 (stereo not shown) [Example 484, 5-[(E)-2-[3-(2-morpholinoethoxy)-5-[(pyrrolidin-3-ylmethylamino)methyl]phenyl]vinyl]pyridine-3-carbonitrile] | ≤ 50 |  |  |  |
| N#Cc1cncc(/C=C/c2cc(CNCC3CCNC3)cc(OCc3n[nH]c(=O)o3)c2)c1 (stereo not shown) [Example 491, 5-[(E)-2-[3-[(2-oxo-3H-1,3,4-oxadiazol-5-yl)methoxy]-5-[(pyrrolidin-3-ylmethylamino)methyl]phenyl]vinyl]pyridine-3-carbonitrile] | ≤ 50 |  |  |  |
| Oc1ncc(/C=C/c2ccc(Cl)cc2Br)cc1CNCC1CCNC1 (stereo not shown) [Example 494, 5-[(E)-2-(2-bromo-4-chloro-phenyl)vinyl]-3-[(pyrrolidin-3-ylmethylamino)methyl]pyridin-2-ol] |  | ≤ 10 | ≤ 50 |  |
| CC(C)COc1cc(CNCC2CCNC2)cc(S(=O)(=O)Cc2cccnc2)c1 (stereo not shown) [Example 495] | ≤ 50 |  |  |  |
| CC(C)COc1cc(/C=C/c2cccnc2)cc(C(=O)CNCC2CCNC2)c1 (stereo not shown) [Example 502, 1-[3-isobutoxy-5-[(E)-2-(3-pyridyl)vinyl]phenyl]-2-(pyrrolidin-3-ylmethylamino)ethanone] | ≤ 50 |  |  | activity at 50 µM (P. aeruginosa PAO1 [1]): ≤ 50% |
| O=C(NCCN(CC1CNC1)CC1CNC1)c1cc(OCCc2ccncc2)cc(OCc2cccnc2)c1 [Example 506, N-[2-[bis(azetidin-3-ylmethyl)amino]ethyl]-3-[2-(4-pyridyl)ethoxy]-5-(3-pyridylmethoxy)benzamide] | ≤ 50 |  |  |  |
| O=C(NCCN(CC1CNC1)CC1CNC1)c1cc(CNC(=O)c2cccnc2)cc(OCCc2ccncc2)c1 [Example 507, N-[[3-[2-[bis(azetidin-3-ylmethyl)amino]ethylcarbamoyl]-5-[2-(4-pyridyl)ethoxyl]phenyl]methyl]pyridine-3-carboxamide] | ≤ 50 |  |  | activity at 50 µM (P. aeruginosa PAO1 [1]): ≤ 50% |
